# Test results: patent publication US11730717B1, “Melanin-inspired antimicrobial” (The Board of Regents for the Oklahoma Agricultural and …, priority 2020, dated 2023)
# Entries after “also recorded” stand apart in the source; their conditions may differ. Where two headings read alike, the source gives them in different places.
# Columns and labels:
# [1] = tested on: MRSA; assay: Comparison with Methicillin and Gentamicin, recoverable CFU; format: cell-based, Staphylococcus aureus; conditions: compared with Methicillin and Gentamicin treatment
# Experimental: To determine CFUs of PA and MRSA after exposure to DMSO, DBI, EIPE-1, Gentamicin or Methicillin, 10-fold serial dilutions were prepared in 96-well micro plates using multichannel pipettes. For each dilution, 25 ptL of each sample was pipetted onto a plate containing agar medium and incubated for 18 h at 37° C. The number of colonies for each dilution were counted and used to back calculate the number of bacteria per mL (CFU/mL) in each original bacterial culture.
# EIPE-1 antimicrobial activity against MRSA and PA was compared to that of Methicillin and Gentamicin treatment. Bacterial cultures were grown, normalized and then exposed to either DBI, DMSO (solvent control), EIPE-1, Methicillin or Gentamicin (FIG. 3). […] This is highly significant and novel as methicillin resistance is a huge problem in hospitals and patient treatment worldwide. […] Gram-negative bacteria like PA have an outer membrane covered with lipopolysaccharides that protects the bacteria from antibiotics, dyes, and detergents from penetrating the bacterial cell.
# [2] = tested on: E. faecalis; assay: MIC and MBC values (Table 2); format: cell-based, Enterococcus faecalis; conditions: repeated determinations
# [3] = tested on: MRSA; assay: Kirby-Bauer disc diffusion assay; format: cell-based, Staphylococcus aureus; conditions: Staphylococcus aureus, 24-hour incubation at 37° C.
# Experimental: The susceptibility of MRSA to EIPE-1 was determined by the Kirby-Bauer disc diffusion method. Using a cotton swab applicator, a lawn of the S. aureus clinical isolate was placed onto Mueller Hinton agar plates to cover the entire surface of the plate. Filter discs (size=6 mm) were added onto the bacterial lawn. EIPE-1, DBI, and DMSO (10 μL each) were then added onto the filter discs.
# The efficacy of compound EIPE-1 was tested by the Kirby-Bauer disc assay. The Kirby-Bauer disc assay assesses the sensitivity of bacteria to antimicrobial agents. If the bacteria are sensitive to the antimicrobial being tested, then a zone of inhibition of bacterial growth is seen around the filter disc containing the antimicrobial. The Kirby-Bauer disc assay was used to test the antimicrobial efficacy of EIPE-1 against MRSA. EIPE-1 was reconstituted at 1 mg/mL in DMSO and serially diluted (10^−1 to 10^−5) after which 10 μL of each dilution (and DMSO as a solvent control) was added to a separate disc on an LB plate inoculated with a lawn of bacteria. The plates were incubated at 37° C. for 24 h, and the resulting radii zone sizes around each disc were then measured.
# [4] = tested on: Bacillus subtilis ATCC 6633; assay: Disc agar diffusion assay; format: cell-based
# Experimental: (§1) As a further test of an embodiment, the antibacterial properties of EIPE-1 were tested across a large panel of organisms. EIPE-1 was dissolved in DMSO, impregnated onto sterile filter paper disks, and DMSO served as the untreated control according to the following procedure: • 1. Prepare a 2.5 μg/μL stock solution of EIPE-1 by micro pipetting 200 μL of DMSO into 2.0 mL Eppendorf Tube containing 0.5 mg of EIPE-1. Dissolve with vortex agitation and store at 4° C. • 2. Use forceps to pick up sterile 6.0 mm blank paper disks. Make sure to touch only one side of disc as lightly as possible. […] Lean the impregnated disc up against the side of a small sterile glass petri dish. Follow same procedure for DMSO control. Allow disks several hours to dry under flowing sterile air. • 3. Inoculate starter cultures using cells from working culture cultivated on Mueller-Hinton Agar (MHA; Difco Laboratories). Starters consist of ˜20 mL of Mueller-Hinton Broth (MHB; Difco Laboratories) in 125-mL culture flasks. Incubate starter cultures in an Excella E24 Benchtop Incubator Shaker (New Brunswick Scientific Co., Inc., Edison, N.J., USA) at 37° C. and 180 rpm for 15-18 hours. • 4. Pour at least 5.0 mL of NMB into 18-mL Kimax tubes. Use a Pasteur pipette to deliver enough of the starter culture cell suspension to reach an optical density (OD620) of 0.025 (Spectronic™ 20 optical spectrophotometer; Thermo Electron Corp., Madison, Wis., USA). Ensure that both transmittance and absorbance are set to 0.0 using a blank NMB sample. Incubate in rotary shaking incubator at 37° C. and 180 rpm until optical density reaches 0.1. • 5. Deliver 100 μL of test culture to the middle of a small 100 mm×15 mm Petri dish containing ˜⅛ in thickness of MHA. • 6. Saturate a sterile cotton swab with MHB by dipping the cotton swab into KIMAX® tube with MHB and then touch the swab to the north, south, east, and west side of the KIMAX® tube to remove excess broth. • 7. Streak the inoculum as follows: • a. Start in the center and make four straight lines to the 12, 3, 6, and 9 o'clock position on the petri dish. • b. Start at the 12 o'clock position and streak side to side all the way down the plate to the 6 o'clock position. […] Rotate the petri dish 90° and complete the same side to side streak all the way down the petri dish. • d. Complete step c. twice more. • e. Rotate petri dish 45° and complete the side-to-side streak. • f. Rotate petri dish 90° and complete the side-to-side streak. • 8. Use sterile forceps to transfer the DMSO control paper disc onto the agar surface and pat the paper disc down to ensure flush contact. Use the same technique to deliver EIPE-1 paper disc. • 9. Place petri dish at 4° C. for 1.0 hour to allow EIPE-1 diffusion in the absence of growth. • 10. Incubate petri dish at 37° C. for 18 hours. • 11. Observe for zones of growth inhibition surrounding disks. Measure diameter with electronic caliper and subtract 6.0-mm disc diameter. Results • a) Each organism was initially tested once to serve as a screen.
# [5] = tested on: Staphylococcus aureus ATCC 25923; assay: Disc agar diffusion assay; format: cell-based
# Experimental: as §1
# [6] = tested on: S. epidermidis SK01; assay: MIC and MBC values (Table 2); format: cell-based; conditions: Staphylococcus epidermidis
# [7] = Group 3: Gram-positive organisms
smiles,measurement,setting,value
"COC(=O)c1cc2c(C#Cc3ccc(OCCC[N+](C)(C)C)cc3)c(OC)c(OC)c(C#Cc3ccc(OCCC[N+](C)(C)C)cc3)c2n1C [EIPE-1, 3,3′-((((5,6-dimethoxy-2-(methoxycarbonyl)-1-methyl-1H-indole-4,7-diyl)bis(ethyne-2,1-diyl))bis(4,1-phenylene))bis(oxy))bis(N,N,N-trimethylpropan-1-aminium) iodide]",biocidal activity against MRSA,[1],effective in killing MRSA; also recorded: exhibited biocidal activity
same,MIC,"[2]; Enterococcus faecalis, read-out: MIC",1 µg/mL
same,MIC,[2],2.000 µg/mL
same,zone of inhibition at 10 µg/mL,[3]; 10 μL of 0.01 mg/mL on disc,1 mm
same,zone of inhibition at 100 µg/mL,[3]; 10 μL of 0.1 mg/mL on disc,1.5 mm
same,zone of inhibition at 1000 µg/mL,[3]; 10 μL of 1.0 mg/mL on disc,2 mm
same,Inhibition Zone Diameter (mm) ± SD,"[4]; B. subtilis ATCC 6633, 25 μg per disk, zone minus disk diameter (6.0mm)",1.1 ± 0.2 mm
same,Inhibition Zone Diameter (mm) ± SD,"[4]; B. subtilis ATCC 6633, 50 μg per disk, zone minus disk diameter (6.0mm)",3.3 ± 0.1 mm
same,zone of inhibition at 25 µg/disc,"[4]; Bacillus subtilis, ATCC6633, B. subtilis ATCC 6633, 25 μg per disk, zone minus disk diameter (6.0mm), read-out: Inhibition Zone Diameter (mm) ± SD",1.1 mm
same,zone of inhibition at 50 µg/disc,"[4]; Bacillus subtilis, ATCC6633, B. subtilis ATCC 6633, 50 μg per disk, zone minus disk diameter (6.0mm), read-out: Inhibition Zone Diameter (mm) ± SD",3.3 mm
same,zone of inhibition at 250 µg/disc,"[4]; Bacillus subtilis, ATCC6633, B. subtilis ATCC 6633, 250 μg per disk, zone minus disk diameter (6.0mm), read-out: Inhibition Zone Diameter (mm) ± SD",1.8 ± 0.3 mm
same,susceptibility group in disc diffusion screen,[4]; [7],susceptible
same,susceptibility group in disc diffusion screen,[5]; [7],susceptible
same,Inhibition Zone Diameter (mm) ± SD,"[5]; S. aureus ATCC 25923, 25 μg per disk, zone minus disk diameter (6.0mm)",1.6 ± 0.1 mm
same,Inhibition Zone Diameter (mm) ± SD,"[5]; S. aureus ATCC 25923, 50 μg per disk, zone minus disk diameter (6.0mm)",3.1 ± 0.2 mm
same,zone of inhibition at 25 µg/disc,"[5]; Staphylococcus aureus, ATCC25923, S. aureus ATCC 25923, 25 μg per disk, zone minus disk diameter (6.0mm), read-out: Inhibition Zone Diameter (mm) ± SD",1.6 mm
same,zone of inhibition at 50 µg/disc,"[5]; Staphylococcus aureus, ATCC25923, S. aureus ATCC 25923, 50 μg per disk, zone minus disk diameter (6.0mm), read-out: Inhibition Zone Diameter (mm) ± SD",3.1 mm
same,zone of inhibition at 250 µg/disc,"[5]; Staphylococcus aureus, ATCC25923, S. aureus ATCC 25923, 250 μg per disk, zone minus disk diameter (6.0mm), read-out: Inhibition Zone Diameter (mm) ± SD",2.3 ± 0.2 mm
same,MBC,[6],2 µg/mL
same,MIC,[6],1 µg/mL
